Test results: the NIST ThermoML archive (doi:10.1016/j.jct.2006.07.025)
± gives the expanded uncertainty stated by the source.

Experiment: xn = mol fraction of the nth substance listed
Settings: for surface tension liquid-gas: Pendant drop shape; for mass density: 101 kPa, Liquid, Vibrating tube method

Cc1cc(C)cc(C)c1 [1,3,5-trimethylbenzene] + CCCCOC(C)=O
Settings	mass density [kg/m3]	surface tension liquid-gas [mN/m]
298.15 K, x2 = 0	861.04 ± 0.18	28.09 ± 0.31
298.15 K, x2 = 0.0736	861.9 ± 0.17	–
298.15 K, x2 = 0.1009	862.23 ± 0.17	27.72 ± 0.31
298.15 K, x2 = 0.1521	862.84 ± 0.17	–
298.15 K, x2 = 0.2018	863.45 ± 0.17	27.34 ± 0.3
298.15 K, x2 = 0.2523	864.09 ± 0.16	–
298.15 K, x2 = 0.3003	864.7 ± 0.16	26.98 ± 0.3
298.15 K, x2 = 0.3499	865.36 ± 0.16	–
298.15 K, x2 = 0.4005	866.03 ± 0.16	26.61 ± 0.29
298.15 K, x2 = 0.45	866.72 ± 0.16	–
298.15 K, x2 = 0.4996	867.44 ± 0.15	26.27 ± 0.29
298.15 K, x2 = 0.5446	868.11 ± 0.15	–
298.15 K, x2 = 0.5979	868.92 ± 0.15	25.93 ± 0.29
298.15 K, x2 = 0.6503	869.76 ± 0.15	–
298.15 K, x2 = 0.7016	870.59 ± 0.15	25.62 ± 0.28
298.15 K, x2 = 0.7504	871.44 ± 0.15	–
298.15 K, x2 = 0.8005	872.32 ± 0.14	25.36 ± 0.28
298.15 K, x2 = 0.846	873.17 ± 0.14	–
298.15 K, x2 = 0.8981	874.13 ± 0.14	25.12 ± 0.28
298.15 K, x2 = 0.9333	874.87 ± 0.14	–
303.15 K, x2 = 0	856.96 ± 0.18	27.67 ± 0.31
303.15 K, x2 = 0.1005	858.04 ± 0.17	27.29 ± 0.3
303.15 K, x2 = 0.1997	859.17 ± 0.17	26.9 ± 0.3
303.15 K, x2 = 0.3	860.37 ± 0.16	26.53 ± 0.29
303.15 K, x2 = 0.3996	861.61 ± 0.16	26.14 ± 0.29
303.15 K, x2 = 0.5007	862.98 ± 0.16	25.79 ± 0.29
303.15 K, x2 = 0.6007	864.4 ± 0.15	25.45 ± 0.28
303.15 K, x2 = 0.7001	865.94 ± 0.15	25.12 ± 0.28
303.15 K, x2 = 0.7971	867.56 ± 0.15	24.85 ± 0.28
303.15 K, x2 = 0.9009	869.4 ± 0.14	24.6 ± 0.27
308.15 K, x2 = 0	852.84 ± 0.18	27.24 ± 0.3
308.15 K, x2 = 0.1002	853.8 ± 0.17	26.84 ± 0.3
308.15 K, x2 = 0.1986	854.82 ± 0.17	26.44 ± 0.29
308.15 K, x2 = 0.2997	855.94 ± 0.16	26.05 ± 0.29
308.15 K, x2 = 0.4003	857.12 ± 0.16	25.66 ± 0.29
308.15 K, x2 = 0.5007	858.39 ± 0.16	25.29 ± 0.28
308.15 K, x2 = 0.5997	859.71 ± 0.15	24.94 ± 0.28
308.15 K, x2 = 0.7005	861.18 ± 0.15	24.6 ± 0.27
308.15 K, x2 = 0.8	862.75 ± 0.15	24.32 ± 0.27
308.15 K, x2 = 0.9006	864.44 ± 0.14	24.07 ± 0.27
313.15 K, x2 = 0	848.74 ± 0.18	26.82 ± 0.3
313.15 K, x2 = 0.0498	849.12 ± 0.18	–
313.15 K, x2 = 0.0997	849.59 ± 0.17	26.39 ± 0.3
313.15 K, x2 = 0.15	850.08 ± 0.17	–
313.15 K, x2 = 0.2012	850.6 ± 0.17	25.97 ± 0.29
313.15 K, x2 = 0.2502	851.13 ± 0.17	–
313.15 K, x2 = 0.2996	851.64 ± 0.16	25.57 ± 0.29
313.15 K, x2 = 0.3507	852.22 ± 0.16	–
313.15 K, x2 = 0.3987	852.78 ± 0.16	25.16 ± 0.28
313.15 K, x2 = 0.4497	853.39 ± 0.16	–
313.15 K, x2 = 0.5008	854 ± 0.16	24.79 ± 0.28
313.15 K, x2 = 0.5499	854.62 ± 0.16	–
313.15 K, x2 = 0.5964	855.24 ± 0.15	24.42 ± 0.27
313.15 K, x2 = 0.6503	855.99 ± 0.15	–
313.15 K, x2 = 0.6995	856.68 ± 0.15	24.07 ± 0.27
313.15 K, x2 = 0.7499	857.4 ± 0.15	–
313.15 K, x2 = 0.7994	858.19 ± 0.15	23.79 ± 0.27
313.15 K, x2 = 0.8499	858.99 ± 0.15	–
313.15 K, x2 = 0.9	859.83 ± 0.14	23.54 ± 0.26
313.15 K, x2 = 0.9495	860.67 ± 0.14	–

Cc1cc(C)cc(C)c1 [1,3,5-trimethylbenzene] + CCCOC(C)=O
Settings	mass density [kg/m3]	surface tension liquid-gas [mN/m]
298.15 K, x2 = 0	861.04 ± 0.18	28.09 ± 0.31
298.15 K, x2 = 0.0498	861.7 ± 0.17	–
298.15 K, x2 = 0.0996	862.38 ± 0.17	27.63 ± 0.31
298.15 K, x2 = 0.1504	863.1 ± 0.17	–
298.15 K, x2 = 0.2006	863.85 ± 0.17	27.16 ± 0.3
298.15 K, x2 = 0.2502	864.63 ± 0.17	–
298.15 K, x2 = 0.3006	865.46 ± 0.17	26.7 ± 0.3
298.15 K, x2 = 0.3499	866.32 ± 0.16	–
298.15 K, x2 = 0.4003	867.23 ± 0.16	26.27 ± 0.29
298.15 K, x2 = 0.4498	868.17 ± 0.16	–
298.15 K, x2 = 0.4985	869.14 ± 0.16	25.85 ± 0.29
298.15 K, x2 = 0.5526	870.28 ± 0.16	–
298.15 K, x2 = 0.6001	871.33 ± 0.16	25.46 ± 0.28
298.15 K, x2 = 0.65	872.49 ± 0.16	–
298.15 K, x2 = 0.6987	873.7 ± 0.15	25.09 ± 0.28
298.15 K, x2 = 0.7369	874.66 ± 0.15	–
298.15 K, x2 = 0.7983	876.31 ± 0.15	24.73 ± 0.28
298.15 K, x2 = 0.8504	877.83 ± 0.15	–
298.15 K, x2 = 0.8995	879.31 ± 0.15	24.35 ± 0.27
298.15 K, x2 = 0.9397	880.63 ± 0.15	–
303.15 K, x2 = 0	856.96 ± 0.18	27.67 ± 0.31
303.15 K, x2 = 0.1	857.96 ± 0.17	27.18 ± 0.3
303.15 K, x2 = 0.2012	859.34 ± 0.17	26.69 ± 0.3
303.15 K, x2 = 0.2995	860.81 ± 0.17	26.2 ± 0.29
303.15 K, x2 = 0.3998	862.5 ± 0.16	25.74 ± 0.29
303.15 K, x2 = 0.4996	864.32 ± 0.16	25.3 ± 0.28
303.15 K, x2 = 0.6004	866.41 ± 0.16	24.9 ± 0.28
303.15 K, x2 = 0.7007	868.63 ± 0.16	24.5 ± 0.28
303.15 K, x2 = 0.7987	871.2 ± 0.15	24.12 ± 0.27
303.15 K, x2 = 0.9009	874.11 ± 0.15	23.73 ± 0.27
308.15 K, x2 = 0	852.84 ± 0.18	27.24 ± 0.3
308.15 K, x2 = 0.0985	853.66 ± 0.17	26.73 ± 0.3
308.15 K, x2 = 0.1992	854.81 ± 0.17	26.2 ± 0.29
308.15 K, x2 = 0.3018	856.13 ± 0.17	25.69 ± 0.29
308.15 K, x2 = 0.3991	857.53 ± 0.17	25.21 ± 0.28
308.15 K, x2 = 0.5009	859.15 ± 0.16	24.75 ± 0.28
308.15 K, x2 = 0.6012	861.08 ± 0.16	24.33 ± 0.28
308.15 K, x2 = 0.6997	863.19 ± 0.16	23.91 ± 0.27
308.15 K, x2 = 0.7983	865.52 ± 0.15	23.52 ± 0.27
308.15 K, x2 = 0.8997	868.19 ± 0.15	23.11 ± 0.26
313.15 K, x2 = 0	848.74 ± 0.18	26.82 ± 0.3
313.15 K, x2 = 0.0503	848.97 ± 0.18	–
313.15 K, x2 = 0.1004	849.28 ± 0.17	26.28 ± 0.29
313.15 K, x2 = 0.1501	849.65 ± 0.17	–
313.15 K, x2 = 0.1999	850.05 ± 0.17	25.73 ± 0.29
313.15 K, x2 = 0.2499	850.49 ± 0.17	–
313.15 K, x2 = 0.3004	851.02 ± 0.17	25.19 ± 0.28
313.15 K, x2 = 0.3502	851.58 ± 0.17	–
313.15 K, x2 = 0.3998	852.18 ± 0.17	24.69 ± 0.28
313.15 K, x2 = 0.449	852.83 ± 0.16	–
313.15 K, x2 = 0.5001	853.57 ± 0.16	24.21 ± 0.27
313.15 K, x2 = 0.5502	854.4 ± 0.16	–
313.15 K, x2 = 0.6	855.29 ± 0.16	23.76 ± 0.27
313.15 K, x2 = 0.6503	856.26 ± 0.16	–
313.15 K, x2 = 0.7005	857.33 ± 0.16	23.33 ± 0.27
313.15 K, x2 = 0.7499	858.44 ± 0.16	–
313.15 K, x2 = 0.8003	859.87 ± 0.16	22.92 ± 0.26
313.15 K, x2 = 0.8499	861.27 ± 0.15	–
313.15 K, x2 = 0.9003	862.85 ± 0.15	22.5 ± 0.26
313.15 K, x2 = 0.9504	864.3 ± 0.15	–
